Source: patent US20080262097A1, “Formulations” (priority 2005, published 2008)
Converted amounts (≈) assume the structure as drawn.

Tests used:
S. aureus ATCC 29213 [1] = experiment: MIC assay; format: cell-based, Staphylococcus aureus; conditions: S. aureus ATCC 29213; Table 1 (Example 1)
Protocol: 1. Staphylococcus aureus—the principal staphylococcal test micro-organism used in these studies was Staphylococcus aureus ATCC 29213. This strain is the one recommended for QC/QA purposes in Minimum Inhibitory Concentration (MIC) assays by the US Clinical and Laboratory Standards Institute (formerly the NCCLS), an FDA-recognised body. […] The staphylococci and enterococci were cultured and maintained on Mueller-Hinton Medium (agar and broth) at pH 7.2; they were incubated aerobically at 37° C. for 24 hours. This is a standard international method for quantitatively assessing the antimicrobial activity of a compound in a liquid medium. The method used a 96-well microtitre plate, capable of holding about 200 μl of liquid per well. […] The culture media were as described above for the relevant test organisms. The wells were inoculated with a liquid suspension of freshly grown micro-organism and incubated under the conditions described above. After incubation, the microtitre plate was examined visually (with the aid of a light box) for cell pellets in and/or opaque wells, which would indicate microbial growth. The MIC value was recorded as the lowest concentration of test compound required to inhibit microbial growth, ie, the lowest concentration for which the liquid in the well remained clear. The assays were conducted in duplicate and included both negative (culture medium only) and positive (culture medium, diluting solvent and inoculum) controls.

S. aureus ATCC 29213 [2] = experiment: MBC assay; format: cell-based, Staphylococcus aureus; conditions: S. aureus ATCC 29213; Table 1 (Example 1)
Protocol: 1. Staphylococcus aureus—the principal staphylococcal test micro-organism used in these studies was Staphylococcus aureus ATCC 29213. This strain is the one recommended for QC/QA purposes in Minimum Inhibitory Concentration (MIC) assays by the US Clinical and Laboratory Standards Institute (formerly the NCCLS), an FDA-recognised body. […] The staphylococci and enterococci were cultured and maintained on Mueller-Hinton Medium (agar and broth) at pH 7.2; they were incubated aerobically at 37° C. for 24 hours. This assay, normally carried out after an MIC assay, determines the minimum concentration of a compound that is lethal to the micro-organism being tested. […] These samples were then individually sub-cultured on non-selective agar medium, under the incubation conditions described above. Following incubation they were examined visually for bacterial growth.

S. aureus ATCC 29213 [3] = experiment: Disc diffusion assay (DDA); format: cell-based, Staphylococcus aureus; conditions: Table 1, zone diameter, 200 μg per disc (thymoquinone 50 μg)
Description: 1. Staphylococcus aureus—the principal staphylococcal test micro-organism used in these studies was Staphylococcus aureus ATCC 29213. This strain is the one recommended for QC/QA purposes in Minimum Inhibitory Concentration (MIC) assays by the US Clinical and Laboratory Standards Institute (formerly the NCCLS), an FDA-recognised body. S. aureus ATCC 29213 is susceptible to beta-lactam antibiotics such as methicillin and to many other antibiotics in clinical use worldwide today. The staphylococci and enterococci were cultured and maintained on Mueller-Hinton Medium (agar and broth) at pH 7.2; they were incubated aerobically at 37° C. for 24 hours. A sterile paper disc was impregnated with a sample of the test compound and a minimum of 30 minutes allowed for the solvents to evaporate as far as possible. The disc was then placed on an agar plate onto which the test micro-organism had been inoculated. The plate was then incubated under the conditions described above, following which it was examined visually for signs of bacterial growth. If the test compound had antimicrobial activity, a circular zone of no growth would be obtained around the disc. The diameter of this zone of “inhibition” was measured using a ProtoCOL™ automated zone sizer (Synbiosis, Cambridge, UK). In general, a greater diameter and/or area of the zone of inhibition indicates a greater antimicrobial activity in the relevant test compound, although other factors such as test compound mobility through the agar gel may also influence the result. […] The exceptions were the thymoquinone assays, in which only 50 μg of the benzoquinone was used.

S. aureus ATCC 29213 [4] = experiment: Supplemented disc diffusion assay (DDA + salt, lipid or blood); format: cell-based, Staphylococcus aureus; conditions: 200 μg per disc (thymoquinone 50 μg); for DDA + blood: agar supplemented with blood; for DDA + lipid: agar supplemented with lipid; for DDA + salt: agar supplemented with salt
Protocol: The staphylococci and enterococci were cultured and maintained on Mueller-Hinton Medium (agar and broth) at pH 7.2; they were incubated aerobically at 37° C. for 24 hours. A sterile paper disc was impregnated with a sample of the test compound and a minimum of 30 minutes allowed for the solvents to evaporate as far as possible. The disc was then placed on an agar plate onto which the test micro-organism had been inoculated. The plate was then incubated under the conditions described above, following which it was examined visually for signs of bacterial growth. If the test compound had antimicrobial activity, a circular zone of no growth would be obtained around the disc. The diameter of this zone of “inhibition” was measured using a ProtoCOL™ automated zone sizer (Synbiosis, Cambridge, UK). In general, a greater diameter and/or area of the zone of inhibition indicates a greater antimicrobial activity in the relevant test compound, although other factors such as test compound mobility through the agar gel may also influence the result. Either the DDA or the SDDA tests may be carried out using an agar gel supplemented with blood, lipid and/or salt to simulate some of the major components present in human skin and to assess whether these substances might reduce the antimicrobial activity observed for the test compounds. Performance under these conditions can provide a more reliable indication of activity on topical application. […] MIC, MBC and DDA assays, as described above, were carried out using the test compound benzoyl peroxide (BP) and a range of different benzoquinones and hydroquinones. Supplemented DDA assays, in the presence of salt, lipid and blood, were also conducted. […] The exceptions were the thymoquinone assays, in which only 50 μg of the benzoquinone was used.

S. aureus ATCC 29213 [5] = experiment: Synergy disc diffusion assay (SDDA); format: cell-based, Staphylococcus aureus; conditions: for SDDA area increase / SDDA increase: quinone + BP; for SDDA area increase: over larger single-compound zone; for SDDA increase: over larger single-compound zone diameter; for SDDA with BP: quinone combined with BP on one disc, 200 μg of each (thymoquinone 50 μg)
Description: 1. Staphylococcus aureus—the principal staphylococcal test micro-organism used in these studies was Staphylococcus aureus ATCC 29213. This strain is the one recommended for QC/QA purposes in Minimum Inhibitory Concentration (MIC) assays by the US Clinical and Laboratory Standards Institute (formerly the NCCLS), an FDA-recognised body. S. aureus ATCC 29213 is susceptible to beta-lactam antibiotics such as methicillin and to many other antibiotics in clinical use worldwide today. The staphylococci and enterococci were cultured and maintained on Mueller-Hinton Medium (agar and broth) at pH 7.2; they were incubated aerobically at 37° C. for 24 hours. This is a variation on the DDA method, in which two compounds are tested together for their combined antimicrobial activity. It provides a qualitative indication as to whether the compounds are likely to interact synergistically. Two test compounds A and B were placed on a single paper disc and the above described DDA procedure repeated. An increase in diameter of the zone of inhibition, compared to the greater of the zone diameters for the two compounds individually, was taken to indicate potential antimicrobial synergy. […] The larger the increase in zone size, the greater the likelihood of a synergistic interaction between the two test compounds. Each of the quinones was then subjected, in combination with BP, to the SDDA assay described above. In each case, increases in zone diameter (mm) and area (%) were measured with respect to those observed for the compound showing the larger zone diameters during the previous disc diffusion assays on the individual compounds. […] The exceptions were the thymoquinone assays, in which only 50 μg of the benzoquinone was used.

P. acnes NCTC 737 [6] = experiment: Synergy disc diffusion assay (SDDA); format: cell-based, Propionibacterium acnes; conditions: for SDDA area increase / SDDA increase: peroxide + TBHQ; for SDDA area increase: over larger single-compound zone; for SDDA increase: over larger single-compound zone diameter; for SDDA with TBHQ: peroxide combined with TBHQ on one disc, 200 μg of each
Protocol: (§1) 2. Propionibacterium spp.—the principal propionibacterial strain used in these studies was Propionibacterium acnes NCTC 737.
(§2) The Propionibacterium spp organisms were cultured and maintained on Wilkins-Chalgren Anaerobe Medium (agar and broth) at pH 6.0; cultures were incubated anaerobically at 37° C. for 72 hours.
This is a variation on the DDA method, in which two compounds are tested together for their combined antimicrobial activity. It provides a qualitative indication as to whether the compounds are likely to interact synergistically.
Two test compounds A and B were placed on a single paper disc and the above described DDA procedure repeated.
Each of the quinones was then subjected, in combination with BP, to the SDDA assay described above.
(§3) For all (S)DDA assays, 200 μg of each compound was loaded onto each disc.

P. acnes NCTC 737 [7] = experiment: Disc diffusion assay (DDA); format: cell-based, Propionibacterium acnes; conditions: Table 11 (Example 9), 200 μg per disc, mean of three replicates
Protocol: as §1, §2
A sterile paper disc was impregnated with a sample of the test compound and a minimum of 30 minutes allowed for the solvents to evaporate as far as possible. The disc was then placed on an agar plate onto which the test micro-organism had been inoculated. The plate was then incubated under the conditions described above, following which it was examined visually for signs of bacterial growth. […] The diameter of this zone of “inhibition” was measured using a ProtoCOL™ automated zone sizer (Synbiosis, Cambridge, UK).
The area of the zone of inhibition was calculated from the measured zone diameter (D) using the formula π(D/2)^2.
as §3

MIC (S. aureus ATCC 29213 [1])	Structure (SMILES)	MBC (S. aureus ATCC 29213 [2])	DDA (S. aureus ATCC 29213 [3])	DDA + blood (S. aureus ATCC 29213 [4])	DDA + lipid (S. aureus ATCC 29213 [4])	DDA + salt (S. aureus ATCC 29213 [4])	SDDA area increase (S. aureus ATCC 29213 [5])	SDDA increase (S. aureus ATCC 29213 [5])	SDDA with BP (S. aureus ATCC 29213 [5])	SDDA area increase (P. acnes NCTC 737 [6])	SDDA increase (P. acnes NCTC 737 [6])	SDDA with TBHQ (P. acnes NCTC 737 [6])	DDA (P. acnes NCTC 737 [7])
15.6 µg/mL (≈ 126 µM)	Cc1cc(O)ccc1O [2-methyl-p-hydroquinone]	15.6 µg/mL (≈ 126 µM)	25.70 mm	18.74 mm	24.68 mm	22.49 mm	62.56%	7.07 mm	32.77 mm	–	–	–	–
–	[Ca+2].[O-][O-] [calcium peroxide]	–	–	–	–	–	–	–	–	544.48%	23.08 mm	38.08 mm	0.0 mm
–	[Mg+2].[O-][O-] [magnesium peroxide]	–	–	–	–	–	–	–	–	523.33%	22.45 mm	37.45 mm	0.0 mm
–	[Na+].[Na+].[O-][O-] [sodium peroxide]	–	–	–	–	–	–	–	–	128.21%	7.66 mm	22.66 mm	0.0 mm
–	CC(C)(C)OO [t-butyl hydroperoxide]	–	–	–	–	–	–	–	–	188.77%	10.49 mm	25.49 mm	0.0 mm
7.8 µg/mL (≈ 46.9 µM)	Cc1cc(O)c(C(C)C)cc1O [thymohydroquinone, 2-iso-propyl-5-methyl-p-hydroquinone]	15.6 µg/mL (≈ 93.9 µM)	57.62 mm	10.27 mm	41.71 mm	57.59 mm	70.26%	17.56 mm	75.18 mm	–	–	–	–
